Entries after “also recorded” stand apart in the source; their conditions may differ. Where a SMILES comes first, the peptide text is derived from it. [ ]: non-standard residue; d: D form. The star is where a group is joined. Sta = CC(C)C[C@H](N)[C@@H](O)CC(=O)O; Isovaleryl = CC(C)CC(=O)*; Nle = CCCC[C@H](N)C(=O)O; Cbz = O=C(OCc1ccccc1)*; CH2F = FC*

For experiment [1], the system named is PC3 cells. Briefly: PC3 cell viability and cell death (PI exclusion, annexin V, caspase-3/7). The format is cell-based, human. The method, then: Cell viability and cell cycle analysis. Cell number and viability was measured using trypan blue exclusion assay using a Vi-Cell Analyzer (Beckman Coulter), or labeled with 1 μg/ml PI in PBS/1% BSA followed by cytofluorometric analysis with a fluorescence-activated cell sorter (FACS) (Becton Dickinson). FITC-conjugated Annexin V was used for the assessment of phosphatidylserine exposure by FACS analysis. Caspase activation was analyzed using a Caspase-Glo 3/7 Assay kit (Promega). For cell cycle analysis, cells were fixed with drop-wise addition of chilled 70% ethanol, washed with PBS and resuspended in staining solution containing 50 μg/ml PI and 60 units of RNAse A. DNA content was analyzed by flow cytometry using the FlowJo and ModFit software (Becton Dickinson).

Experiment [2] relates to PC3 cells. Kind of experiment: Microarray analysis of autophagy gene expression in PC3 cells. To be noted: 1 or 5 μM for 6 or 24 hours, normalized to DMSO. The class given is cell-based, human. As to the method: PC3 cells were induced to express shRNA to indicated Akt isoforms for 72 hours by Doxycycline, RNA was extracted from both Dox treated (Dox+) or untreated control (Dox−) cells. Microarray analysis was carried out using Affymetrix chips. Ratios of the expression levels of each autophagy gene from Dox+ and Dox− samples are shown. Data are mean values from 3 independent experiments.
RNA was extracted from the cells. Microarray analysis was carried out using Affymetrix chips. Expression levels of each autophagy gene are normalized to the DMSO controls. Data are mean values from 3 independent experiments.

Experiment [3] can be described thus: Autophagic vacuole accumulation by side scatter (SSC) in a flow cytometer. The format is cell-based. From the text:
Inhibitors include 3-phenyl-2-(4-((4-(5-(pyridin-2-yl)-1H-1,2,4-triazol-3-yl)piperidin-1-yl)methyl)phenyl)-1,6-naphthyridin-5(6H)-one (II-3), benzyl 2-(4-(3-ethylureido)phenyl)-4-(1,4-oxazepan-4-yl)-5H-pyrrolo[3,4-d]pyrimidine-6(7H)-carboxylate (III-1); 1-ethyl-3-(4-(4-morpholino-7-(pyrimidin-2-yl)-5,6,7,8-tetrahydropyrido[3,4-d]pyrimidin-2-yl)phenyl)urea (III-2), (R)-1-(44(2-(2-aminopyrimidin-5-yl)-7-methyl-4-morpholinothieno[3,2-d]pyrimidin-6-yl)methyl)piperazin-1-yl)-2-hydroxypropan-1-one (III-3), 4-(2-(1H-indazol-4-yl)-6-((4-(methylsulfonyl)piperazin-1-yl)methyl)thieno[3,2-d]pyrimidin-4-yl)morpholine (III-6), (S)—N-(4-(benzo[d][1,3]dioxol-5-yl)thiazol-2-yl)-N-(3-(2-formylpiperidin-1-yl)propyl)thiophene-2-carboxamide (IV-2) and Rapamycin.
FIG. 14 depicts CQ (10 μM) increases the number and size of autophagic vacuoles when combined with the various mTOR, PI3K, and Akt inhibitors.

In experiment [4] the test system is PC3 cells. Kind of experiment: Autophagy markers in PC3 cells (EM AVs, GFP-LC3, LC3-II/LC3-I, MDC, AO). The class given is cell-based, human. To be noted: 3-MA pretreatment. As to the method:
Western blot analysis, immunofluorescence, 1HC and TUNEL assay: For Western blot analysis, total protein lysates were subjected to SDS-PAGE and transferred to nitrocellulose. […] Detection and quantification were performed using an Odyssey infrared scanner (LICOR) using the manufacturer's software. For immunofluorescence staining, cells were fixed in 3% paraformaldehyde and permeabilized with 0.01% digitonin in PBS, followed by a rabbit polyclonal anti-LC3 (Abgent) primary antibody detected with a cy3-conjugated anti-rabbit secondary antibody (Jackson Immunoresearch). For IHC, formalin-fixed, paraffin-embedded specimens were collected. 5-μm-thick paraffin-embedded sections were stained using an anti-Ki-67 (MIB-1, DakoCytomation) antibody with the Dako ARK kit (Dako Corporation). Tissues were counterstained with haematoxylin, dehydrated, and mounted. In all cases, antigen retrieval was performed with the Dako Target Retrieval Kit as per manufacturer's instructions. For TUNEL assay, formalin-fixed, paraffin-embedded sections were stained using an in situ cell death detection kit (POD; Roche Diagnostic) according to the manufacturer's instructions.
Ultrathin sections were stained with uranyl acetate and lead citrate. Numbers of AV were counted on systematically sampled cytoplasmic areas of 4.5 μm^2 (n≧64 per condition). The percent AV area was measured by means of a square mesh grid laid over ≧5 sets of systematically sampled micrographs with each set covering a cytoplasmic area ≧80 μm^2. The average percent of apoptotic nuclei in tumor tissues was calculated from the number of apoptotic nuclei in 3 to 4 sets of 100 systematically counted tumor cell nuclei.
Multispectral imaging flow cytometry: Cells treated with various agents were stained with Acridine Orange and analyzed by the ImageStream system (Amnis Corporation, Seattle, Wash.) using the IDEAS image analysis program. The DNA AOGreen image and the vacuolar AO Red image were first compensated into separate channels, and then the percentage of apoptotic/anucleate cells (based on AO nuclear morphology and intensity) and vacuolated cells (AO Red+) were quantified. […] AORed Intensity is plotted on the second histogram with an arbitrary gate (R5) drawn to include events with the brightest AO Red intensity.

For experiment [5], the system named is PC3 cells. Kind of experiment: Mitochondrial superoxide (MitoSOX red) and cellular ROS in PC3 cells. The format is cell-based, human.

Regarding `CCCC[C@@H](C=O)NC(=O)[C@H](CC(C)C)NC(=O)[C@H](CC(C)C)NC(C)=O` [N-Acetyl-Leu-Leu-Nle-CHO] (Ac-Leu-Leu-[Nle]-aldehyde), the “rescue of cell death induced by II-4 (Akti) and CQ” value (“rescue of cell death induced” below) in the experiment with PC3 cells [1] is “Neither of the broad-spectrum cysteine protease inhibitors zFA.fmk and N-Acetyl-Leu-Leu-Nle-CHO nor a more specific cathepsin B inhibitor CA-074-Me showed significant rescue of cell death”. Turning to `CO/C1=C\C(C)=C\[C@@H](C)[C@@H](O)[C@@H](C)C/C(C)=C/C=C/[C@H](OC)[C@@H]([C@@H](C)[C@@H](O)[C@H](C)[C@@]2(O)C[C@@H](O)[C@H](C)[C@@H](C(C)C)O2)OC1=O` [Ba, bafilomycin A1], the “cell death in combination with shAkt123” value in the experiment on PC3 cells [1] (Dox, 10 μM CQ or […] Ba, 0.5% or 0% FBS) is given as “promoted cell death in combination with shAkt 123”. For `NC(=O)[C@@H]1CCCCN1CCCN(C(=O)c1cccs1)c1nc(-c2cc(-c3ccccc3)no2)cs1` [IV-1, (S)-1-(3-(N-(4-(3-phenylisoxazol-5-yl)thiazol-2-yl)thiophene-2-carboxamido)propyl)piperidine-2-carboxamide], the autophagy gene expression entry in the experiment on PC3 cells [2] is “induce autophagy gene expression”. As to `CC(C)CC(=O)N[C@H](C(=O)N[C@H](C(=O)N[C@@H](CC(C)C)[C@@H](O)CC(=O)N[C@@H](C)C(=O)N[C@@H](CC(C)C)[C@@H](O)CC(=O)O)C(C)C)C(C)C` [pepstatin A] (Isovaleryl-VV[Sta]A[Sta]-OH), the “cell death in combination with II-4 (Akti)” value in the experiment with PC3 cells [1] was “promoted cell death together with Akti-112”. With `CCCNC(=O)[C@H]1O[C@@H]1C(=O)N[C@H](C(=O)N1CCC[C@H]1C(=O)OC)[C@@H](C)CC` [CA-074-Me], the “rescue of cell death induced” value in the experiment on PC3 cells [1] was “Neither of the broad-spectrum cysteine protease inhibitors zFA.fmk and N-Acetyl-Leu-Leu-Nle-CHO nor a more specific cathepsin B inhibitor CA-074-Me showed significant rescue of cell death”. As to `O=c1[nH]ccc2nc(-c3ccc(CN4CCC(c5n[nH]c(-c6ccccn6)n5)CC4)cc3)c(-c3ccccc3)cc12` [II-3, 3-phenyl-2-(4-((4-(5-(pyridin-2-yl)-1H-1,2,4-triazol-3-yl)piperidin-1-yl)methyl)phenyl)-1,6-naphthyridin-5(6H)-one], the “autophagic vacuole accumulation (SSC), inhibitor alone” value in experiment [3] was “induce increased autophagic vacuole accumulation”. `Cn1cnc(N)c2ncnc1-2` [3-MA, 3-methyladenine]: the “effect of 3-MA pretreatment on cell death promoted by CQ or Ba in shAkt expressing cells” value with PC3 cells [1] (1 mM 3-MA) was “delayed this effect; also recorded: suppressed the cell death-promoting effect of either CQ or Ba”. Further, the “effect of 3-MA on rate of cell death in III-5 and CQ treated cells” value in the experiment on PC3 cells [1] (3-MA pretreatment) is listed as “slowed down the rate of cell death”. Moreover, in the experiment with PC3 cells [4], the “effect of 3-MA on LC3-II to -I ratios and MDC+ vacuoles in III-5 and CQ treated cells” value was “suppressed this effect; also recorded: reduced both LC3-II to -I ratios and the accumulation of MDC^+ vacuoles”. In addition, the “effect of 3-MA pretreatment on ROS levels” value in the experiment on PC3 cells [5] is “reduced ROS signals generated by CQ, Akti and Akti+CQ; also recorded: reduced ROS levels induced by II-4”. Regarding `Cc1nc(-c2ccc(CN3CCC(n4c(=O)[nH]c5ccccc54)CC3)cc2)c(-c2ccccc2)nc1O` [II-1, 1-(1-(4-(5-hydroxy-6-methyl-3-phenylpyrazin-2-yl)benzyl)piperidin-4-yl)-1H-benzo[d]imidazol-2(3H)-one], in the experiment on PC3 cells [2], the autophagy gene expression entry was “induce autophagy gene expression”. As for `COC(=O)C[C@H](NC(=O)[C@H](C)NC(=O)[C@@H](NC(=O)OCc1ccccc1)C(C)C)C(=O)CF` [zVAD.fmk] (Cbz-Val-Ala-Asp(OMe)-CH2F), in the experiment on PC3 cells [1], the “rescue of cell death induced” value is given as “partially rescued cell death at all concentrations tested”. On to `CC(NC(=O)[C@H](Cc1ccccc1)NC(=O)OCc1ccccc1)C(=O)CF` (stereo partly drawn) [zFA.fmk], for which the “rescue of cell death induced” value with PC3 cells [1] is “Neither of the broad-spectrum cysteine protease inhibitors zFA.fmk and N-Acetyl-Leu-Leu-Nle-CHO nor a more specific cathepsin B inhibitor CA-074-Me showed significant rescue of cell death”. In the case of `Cc1c(CN2CCN(C(=O)[C@@H](C)O)CC2)sc2c(N3CCOCC3)nc(-c3cnc(N)nc3)nc12` [III-3], in experiment [3], the “autophagic vacuole accumulation (SSC), inhibitor alone” value is recorded as “induce increased autophagic vacuole accumulation”. With `O=C[C@@H]1CCCCN1CCCN(C(=O)c1cccs1)c1nc(-c2ccc3c(c2)OCO3)cs1` [IV-2, (S)—N-(4-(benzo[d][1,3]dioxol-5-yl)thiazol-2-yl)-N-(3-(2-formylpiperidin-1-yl)propyl)thiophene-2-carboxamide], in experiment [3], the “autophagic vacuole accumulation (SSC), inhibitor alone” value is reported as “induce increased autophagic vacuole accumulation”. `CO[C@H]1C[C@@H]2CC[C@@H](C)[C@@](O)(O2)C(=O)C(=O)N2CCCC[C@H]2C(=O)O[C@H]([C@H](C)C[C@@H]2CC[C@@H](O)[C@H](OC)C2)CC(=O)[C@H](C)/C=C(\C)[C@@H](O)[C@@H](OC)C(=O)[C@H](C)C[C@H](C)/C=C/C=C/C=C/1C` [Rapamycin, rapamycin]: the “autophagic vacuole accumulation (SSC), inhibitor alone” value in experiment [3] is “induce increased autophagic vacuole accumulation”. In the case of `CCNC(=O)Nc1ccc(-c2nc3c(c(N4CCOCC4)n2)CCN(c2ncccn2)C3)cc1` [III-2, 1-ethyl-3-(4-(4-morpholino-7-(pyrimidin-2-yl)-5,6,7,8-tetrahydropyrido[3,4-d]pyrimidin-2-yl)phenyl)urea], the “autophagic vacuole accumulation (SSC), inhibitor alone” value in experiment [3] is “induce increased autophagic vacuole accumulation”. As to `CCNC(=O)Nc1ccc(-c2nc3c(c(N4CCCOCC4)n2)CN(C(=O)OCc2ccccc2)C3)cc1` [III-1, benzyl 2-(4-(3-ethylureido)phenyl)-4-(1,4-oxazepan-4-yl)-5H-pyrrolo[3,4-d]pyrimidine-6(7H)-carboxylate], the “autophagic vacuole accumulation (SSC), inhibitor alone” value in experiment [3] is listed as “induce increased autophagic vacuole accumulation”.

For the origin of these results see patent publication US20140004209A1, “AUTOPHAGY INDUCER AND INHIBITOR COMBINATION THERAPY FOR THE TREATMENT OF NEOPLASMS” (GENENTECH, INC., priority 2010, published 2014).
